Patent US9511010B2, “Compounds useful in the treatment and/or care of the skin, hair and/or mucous membranes and their cosmetic or pharmaceutical compositions” (Lubrizol Advanced Materials, Inc., priority 2012, dated 2016)

How the values were obtained:
FOXO response elements = assay: Stimulation of the expression of proteins regulated by FOXO: luciferase reporter under FOXO response elements; format: cell-based, human; settings: 0.5 mg/mL, 24 hours; carrier (0.05% DMSO) = 100
Procedure: The activation capacity of the FOXO response elements was evaluated in a human epithelial cell line stably transfected with the luciferase gene under the control of a regulatory sequence which contains different FOXO response elements which are in the promoters of the FOXO target genes. The activation capacity of the FOXO response elements indicates the expression of proteins regulated by FOXO. 30,000 cells per well were seeded in a total volume of 100 μL of RPMI 1640 culture medium. After 24 hours the cells with RPMI 1640 culture medium were washed and were incubated with the compounds of the invention at 0.5 mg/mL for 24 hours in a total volume of 100 μL per well. The carrier in which the compounds of the invention were dissolved was used (0.05% DMSO) as a negative control.
The measurement of the activity of the promoter was carried out using the Steady-Go Luciferase Assay System kit following the manufacturer's instructions. The luminescence values (RLU/sec) caused by the reaction between luciferase and the substrate were quantified with a luminometer and normalized by the cell number (absorbance at 630 nm), and the activity of the promoter was determined, which was standardized with regard to the negative control values.
Each experiment was carried out three times in 3 independent experiments.

HDFa cells [1] = assay: Photoprotective effectiveness in human fibroblasts (Neutral Red viability after solar simulation irradiation); format: cell-based; settings: for Effectiveness Photoprotection (%): irradiated; for Cell viability: preincubated 1 hour, irradiated ~60 J/cm^2, irradiated control 50.72%
Procedure: HDFa cells were put in culture medium for 24 hours in 96-well plates to form monolayers. Afterwards the cells were preincubated in darkness with 0.5 mg/mL, 0.1 mg/mL, 0.01 mg/mL of Ac-L-Tyr-L-Glu-L-Lys-L-Leu-L-Gln-L-Val-NH2 (Ac-SEQ ID NO:22-NH2) in PBS or PBS alone (control) for 1 hour at 37° C. and humidified air with 5% CO2.
The cells were irradiated with a solar simulation lamp at ˜60 J/cm^2 for 210 min at room temperature. A control plate was kept in the dark for the same time at room temperature. Once irradiation was completed the culture medium was changed for a new one and the plates were incubated for another 24 hours.
(§1) The cell viability was determined with the Neutral Red dye, measuring the absorbency at 540 nm in a spectrophotometer.
The photoprotective effectiveness was determined by comparing the viability obtained in cells treated with Ac-L-Tyr-L-Glu-L-Lys-L-Leu-L-Gln-L-Val-NH2 (Ac-SEQ ID NO:22-NH2) with the irradiated and non-irradiated control cell response.

HDFa cells [2] = assay: Photo repair effectiveness in human fibroblasts (Neutral Red viability, treatment after irradiation); format: cell-based; settings: for Cell viability: irradiated control 63.06%; for Effectiveness Photo-repair (%): irradiated
Procedure: HDFa cells were put in culture medium for 24 hours in 96-well plates to form monolayers at 37° C. and humidified air with 5% CO2. Afterwards the culture medium was changed for D-PBS and the cells were irradiated with a solar simulation lamp at ˜40 J/cm^2 for 180 min at room temperature. A control plate was kept in the dark for the same time at room temperature.
Afterwards 0.5 mg/mL, 0.1 mg/mL, 0.01 mg/mL of Ac-L-Tyr-L-Glu-L-Lys-L-Leu-L-Gln-L-Val-NH2 (Ac-SEQ ID NO:22-NH2) in culture medium or culture medium alone (control) were added to the cells and they were incubated for 24 hours in darkness at 37° C. and humidified air with 5% CO2.
as §1
The photorepair effectiveness was determined by comparing the viability obtained in cells treated with Ac-L-Tyr-L-Glu-L-Lys-L-Leu-L-Gln-L-Val-N H2 (Ac-SEQ ID NO:22-NH2) with the irradiated and non-irradiated control cell response.

[3] = tested on: Fibroblasts from a sample of human skin; assay: Alkaline comet assay, protection against genotoxicity induced by photo-activated benzo[a]pyrene (BaP); format: cell-based; settings: 0.01 mg/mL
Procedure: Fibroblasts from a sample of human skin were isolated and incubated with 0.01 mg/mL of Ac-L-Tyr-L-Glu-L-Lys-L-Leu-L-Gln-L-Val-NH2 (Ac-SEQ ID NO:22-NH2) or carrier (control) with and without the presence of 40 μM BaP for 2 hours at 37° C. Once this contact time was over the cells were irradiated with 90 KJ/m^2 UVA/visible light (320-800 nm) for a maximum of 2 min at 4° C. to induce photo activation of BaP which damages the DNA. This damage was analyzed by the alkaline comet assay, detecting the DNA breakages. The protective effectiveness of the damage to the DNA of the different treatments was determined by analyzing the images using the software Fenestra Komet 5.5, expressing the damage to the DNA as the Olive Tail Moment (OTM; arbitrary units) and the χ^2 OTM function was determined, related to the quantity of damaged DNA, with the software TableCurve 2D.
As a negative control all the non-irradiated treatments were included (control, 40 μM BaP, 0.01 mg/mL of Ac-SEQ ID NO:22-NH2 and 0.01 mg/mL of (Ac-SEQ ID NO:22-NH2)+40 μM BaP). In table 14 the protective effectiveness results of Ac-SEQ ID NO:22-NH2 in human fibroblasts are shown.
The protection percentage conferred by the compound Ac-SEQ ID NO:22-NH2 against DNA damage induced by BaP was shown as the relationship of the value of χ^2 OTM for treatment with the compound Ac-SEQ ID NO:22-NH2 in the presence of photo-activated BaP with regard to the value of χ^2 OTM of the treatment with photo-activated BaP according to the formula resulting in a protection percentage conferred by the compound Ac-SEQ ID NO:22-NH2 against damage to DNA induced by BaP of 84.3%.

Ac-YEKLQV-NH2 [Ac-SEQ ID NO: 22-NH2, Ac-L-Tyr-L-Glu-L-Lys-L-Leu-L-Gln-L-Val-NH2]
Stimulation Average (%) of the activation of the FOXO response factors (FOXO response elements): 186%
Effectiveness Photoprotection (%) (HDFa cells [1]; 0.01 mg/mL): 16.24%
Cell viability (HDFa cells [1]; 0.01 mg/mL): 58.96%
Effectiveness Photoprotection (%) (HDFa cells [1]; 0.1 mg/mL): 20.06%
Cell viability (HDFa cells [1]; 0.1 mg/mL): 60.90%
Effectiveness Photoprotection (%) (HDFa cells [1]; 0.5 mg/mL): 35.10%
Cell viability (HDFa cells [1]; 0.5 mg/mL): 68.52%
Cell viability (HDFa cells [2]; 0.01 mg/mL for 24 hours after irradiation ~40 J/cm^2): 71.99%
Effectiveness Photo-repair (%) (HDFa cells [2]; 0.01 mg/mL): 14.16%
Cell viability (HDFa cells [2]; 0.1 mg/mL for 24 hours after irradiation ~40 J/cm^2): 70.71%
Effectiveness Photo-repair (%) (HDFa cells [2]; 0.1 mg/mL): 12.13%
Cell viability (HDFa cells [2]; 0.5 mg/mL for 24 hours after irradiation ~40 J/cm^2): 71.40%
Effectiveness Photo-repair (%) (HDFa cells [2]; 0.5 mg/mL): 13.23%
χ^2 OTM ([3]; 40 μM BaP, irradiation with UVA/visible, BaP alone 11.38): 3.52
χ^2 OTM ([3]; 40 μM BaP, no irradiation, BaP alone 2.07): 2.18
χ^2 OTM ([3]; no BaP, irradiation with UVA/visible, control 2.25): 2.09
χ^2 OTM ([3]; no BaP, no irradiation, control 2.08): 2.26
protection percentage against damage to DNA induced by BaP ([3]; photo-activated 40 μM BaP): 84.3%
